Data taken from ChEMBL document CHEMBL1201862, “PubChem BioAssay data set” (2004).
Active and inactive are the calls of the source. For most assays here, no stated cut-off is given here; in the data, actives have a measured EC50 and inactives only a lower limit.

Assays:
[1] = biological target: Induced myeloid leukemia cell differentiation protein Mcl-1 (Homo sapiens, UniProt Q07820); assay type: functional
[2] = inhibitors of firefly luciferase expression or activity, dose response, H4 neuroglioma cells, luminescence (AID 1990); assay type: functional, cell-based
[3] = luciferase reporter signal reduction – luminescence, H4-C neuroglioblastoma cells, dose response (AID 2458); assay type: functional, cell-based;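 further: H4 neuroglioblastoma cells stably carrying a luciferase reporter gene fusion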
cells = assay type: functional, cell-based
[4] = Luminescence Cell-Based Dose Response HTS to Identify Inhibitors of 5'UTR Stem-Loop Driven Prion Protein mRNA Translation in H4 Neuroglioblastoma Cells. [Related pubchem assays: 1827 (Project Summary), 1813 (Primary HTS)]; assay type: functional
[5] = inhibitors of SNCA 5'UTR-driven reporter translation, confirmation, H4 neuroglioma cells, luminescence (AID 1988); assay type: functional, cell-based
[6] = inhibitors of SNCA 5'UTR-driven translation, confirmation, luminescence, H4 neuroglioblastoma cells, dose confirmation (AID 2454); assay type: functional, cell-based;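 further: H4 neuroglioblastoma cells carrying an alpha-synuclein 5'UTR luciferase reporter; potency for inhibition of the luciferase signal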
[7] = biological target: Eukaryotic translation initiation factor 4H (Homo sapiens, UniProt Q15056); assay: human eIF4H binding inhibitors, primary screen, translation initiation inhibitor project, biochemical, uHTS, fluorescence polarization (AID 2012)
[8] = biological target: Polyadenylate-binding protein 1 (Homo sapiens, UniProt P11940); assay: PABP poly(A) RNA binding inhibitors, primary screen, biochemical, fluorescence polarization, uHTS (AID 2014)
Polyadenylate-binding protein 1, sequence (P11940 whole entry): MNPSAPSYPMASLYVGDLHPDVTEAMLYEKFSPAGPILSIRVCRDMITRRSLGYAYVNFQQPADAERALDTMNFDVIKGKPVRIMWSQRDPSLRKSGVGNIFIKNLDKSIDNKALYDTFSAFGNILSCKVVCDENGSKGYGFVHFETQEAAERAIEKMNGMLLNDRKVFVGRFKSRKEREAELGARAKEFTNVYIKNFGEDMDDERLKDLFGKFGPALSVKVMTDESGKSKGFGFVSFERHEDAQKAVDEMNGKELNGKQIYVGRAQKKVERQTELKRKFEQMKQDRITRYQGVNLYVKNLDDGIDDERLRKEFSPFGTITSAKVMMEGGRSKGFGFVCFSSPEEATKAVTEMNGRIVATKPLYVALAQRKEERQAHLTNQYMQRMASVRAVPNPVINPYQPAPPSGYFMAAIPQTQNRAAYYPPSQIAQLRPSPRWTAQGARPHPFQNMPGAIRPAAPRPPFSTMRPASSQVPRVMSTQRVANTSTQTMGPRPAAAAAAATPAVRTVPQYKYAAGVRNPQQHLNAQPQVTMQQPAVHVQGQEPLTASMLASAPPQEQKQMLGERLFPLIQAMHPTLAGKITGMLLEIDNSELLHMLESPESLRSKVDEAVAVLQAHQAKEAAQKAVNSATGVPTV

[9] = biological target: Glyceraldehyde-3-phosphate dehydrogenase (Homo sapiens, UniProt P04406)
Glyceraldehyde-3-phosphate dehydrogenase, sequence (P04406 whole entry): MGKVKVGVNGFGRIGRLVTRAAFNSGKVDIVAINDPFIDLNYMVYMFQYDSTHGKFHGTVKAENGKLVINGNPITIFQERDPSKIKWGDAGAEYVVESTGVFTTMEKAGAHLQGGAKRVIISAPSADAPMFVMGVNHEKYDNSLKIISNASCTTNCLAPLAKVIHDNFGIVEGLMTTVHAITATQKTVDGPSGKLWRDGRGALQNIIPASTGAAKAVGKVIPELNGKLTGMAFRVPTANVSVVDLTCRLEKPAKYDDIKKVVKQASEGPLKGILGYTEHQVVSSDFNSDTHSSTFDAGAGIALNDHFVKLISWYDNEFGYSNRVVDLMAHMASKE

Bcl-2-related protein A1 [10] = biological target: T1, Bcl-2-related protein A1 (Mus musculus, UniProt Q07440); assay: Bfl-1 inhibitors blocking BH3 peptide binding, confirmation, biochemical, TR-FRET, mouse Bfl-1 (AID 621);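 further: TR-FRET binding of GST-Bfl-1 to FITC-labelled Bid peptide via terbium antibody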
T1 sequence (Q07440 whole entry): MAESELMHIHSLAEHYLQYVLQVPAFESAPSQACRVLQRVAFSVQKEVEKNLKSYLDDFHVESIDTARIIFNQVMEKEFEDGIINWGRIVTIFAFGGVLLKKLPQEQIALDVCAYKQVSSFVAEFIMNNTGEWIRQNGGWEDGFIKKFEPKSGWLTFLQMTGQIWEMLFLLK

Bcl-2-related protein A1 [11] = biological target: T1, Bcl-2-related protein A1; assay: Bfl-1 binding inhibitors, SAR follow-up, biochemical, fluorescence polarization (AID 1070)
[12] = Counterscreen for IDE inhibitors: Luminescence-based cell-based high throughput dose response assay to identify compounds that are cytotoxic to HEK cells. [Related pubchem assays: 434962 (Primary screen (IDE inhibitors in singlicate)), 449730 (Counterscreen (Cytotoxicity in triplicate)), 435028 (Confirmation (IDE inhibitors in triplicate)) …; assay type: functional; details: HEK293
Insulin-degrading enzyme = Insulin-degrading enzyme (Homo sapiens, UniProt P14735); assay: Dose Response: Fluorescence polarization-based cell-based high throughput dose response assay for inhibitors of insulin-degrading enzyme (IDE). [Related pubchem assays: 434962 (Primary screen (IDE inhibitors in singlicate)), 449730 (Counterscreen (Cytotoxicity in triplicate)), 435028 (Confirmation (IDE inhibitors in triplicate)), 434984 (Summary …; assay type: functional
Insulin-degrading enzyme, sequence (P14735 whole entry): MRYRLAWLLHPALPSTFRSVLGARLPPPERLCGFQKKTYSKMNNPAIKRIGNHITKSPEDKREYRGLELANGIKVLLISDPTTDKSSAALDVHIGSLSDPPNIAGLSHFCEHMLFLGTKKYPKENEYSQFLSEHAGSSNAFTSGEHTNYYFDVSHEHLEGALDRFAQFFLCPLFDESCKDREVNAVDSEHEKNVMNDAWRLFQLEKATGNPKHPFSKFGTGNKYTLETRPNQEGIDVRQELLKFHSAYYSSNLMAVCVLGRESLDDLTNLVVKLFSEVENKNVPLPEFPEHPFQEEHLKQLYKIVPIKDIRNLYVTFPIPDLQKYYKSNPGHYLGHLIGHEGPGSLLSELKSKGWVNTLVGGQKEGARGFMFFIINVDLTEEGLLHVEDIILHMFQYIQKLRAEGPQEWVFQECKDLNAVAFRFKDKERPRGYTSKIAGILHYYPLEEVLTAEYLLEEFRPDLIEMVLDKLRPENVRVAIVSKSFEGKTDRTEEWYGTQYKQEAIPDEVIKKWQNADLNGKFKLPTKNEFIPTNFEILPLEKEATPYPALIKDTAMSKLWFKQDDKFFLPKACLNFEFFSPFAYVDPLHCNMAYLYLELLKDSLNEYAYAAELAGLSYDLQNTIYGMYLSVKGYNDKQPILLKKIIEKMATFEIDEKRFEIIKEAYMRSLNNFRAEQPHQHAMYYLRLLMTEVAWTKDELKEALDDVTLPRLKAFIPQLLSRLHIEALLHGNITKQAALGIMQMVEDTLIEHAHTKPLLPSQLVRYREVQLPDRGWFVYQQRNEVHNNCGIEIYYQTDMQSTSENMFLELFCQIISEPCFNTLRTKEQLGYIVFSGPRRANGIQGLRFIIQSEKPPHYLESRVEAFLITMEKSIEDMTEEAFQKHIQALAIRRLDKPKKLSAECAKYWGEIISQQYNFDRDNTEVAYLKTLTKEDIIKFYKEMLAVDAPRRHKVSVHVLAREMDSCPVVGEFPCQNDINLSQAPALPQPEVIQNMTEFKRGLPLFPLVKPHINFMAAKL

BJ [13] = assay: cytotoxicity toward BJ-TERT fibroblasts, dose response, cell-based, RAS-independent, luminescence (AID 1933); assay type: functional; details: Homo sapiens
BJ [14] = assay: cells; assay type: functional, cell-based; details: Homo sapiens
[15] = cytotoxicity in HPDE-C7 cells, cell-based, fluorescence, HTS (AID 430); assay type: functional; details: Homo sapiens
[16] = cytotoxicity in KRAS-transformed pancreatic duct cells, primary screen, cell-based, fluorescence, HTS (AID 431); assay type: functional; details: Homo sapiens;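 further: cell line used: HPDE-C7K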
BJ [17] = assay: cytotoxicity toward BJ-TERT-LT-ST fibroblasts, dose response, cell-based, RAS-independent, luminescence (AID 1935); assay type: functional; details: Homo sapiens;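 further: BJ fibroblasts immortalized with TERT plus LT and ST oncogenes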
[18] = cytotoxicity toward DRD oncogenic fibroblasts, dose response, cell-based, non-viral oncogenic, luminescence (AID 1934); assay type: functional; details: Homo sapiens
[19] = Luminescence Cell-Based Dose Retest to Confirm Inhibitors of Cancer Stem Cells. [Related pubchem assays (depositor defined):AID2717, AID2721]; assay type: functional; details: Homo sapiens
INS1 = assay: beta cell apoptosis inhibitors, cytokine rescue, dose response, luminescence, retest (AID 449756); assay type: functional, cell-based; details: Rattus norvegicus;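 further: cell death triggered by IL-1 beta plus TNF-alpha plus IFN-gamma mixture; protective hits raise ATP signal compared with cytokine alone wells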
[20] = biological target: T2, RNA-binding protein pos-1 (Caenorhabditis elegans, UniProt G5EF15); assay: inhibitors of POS-1/mex-3 RNA binding, dose response, biochemical, fluorescence polarization (AID 1964);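 further: purified POS-1 fused to maltose binding protein made in E. coli; potency of compounds blocking POS-1 binding to fluorescent RNA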
T2 sequence (G5EF15 whole entry): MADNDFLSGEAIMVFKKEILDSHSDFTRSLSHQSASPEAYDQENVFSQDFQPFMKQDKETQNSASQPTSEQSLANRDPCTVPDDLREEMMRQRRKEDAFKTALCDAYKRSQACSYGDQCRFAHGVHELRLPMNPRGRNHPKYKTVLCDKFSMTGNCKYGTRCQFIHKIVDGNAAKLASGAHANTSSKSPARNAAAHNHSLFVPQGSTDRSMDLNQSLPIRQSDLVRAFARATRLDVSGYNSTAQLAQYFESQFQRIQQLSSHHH

[21] = biological target: T3, Zinc finger protein mex-5 (Caenorhabditis elegans, UniProt Q9XUB2); assay: MEX-5/TCR-2 RNA interaction inhibitors, dose response, biochemical, C. elegans, fluorescence polarization (AID 1960)
T3 sequence (Q9XUB2 whole entry): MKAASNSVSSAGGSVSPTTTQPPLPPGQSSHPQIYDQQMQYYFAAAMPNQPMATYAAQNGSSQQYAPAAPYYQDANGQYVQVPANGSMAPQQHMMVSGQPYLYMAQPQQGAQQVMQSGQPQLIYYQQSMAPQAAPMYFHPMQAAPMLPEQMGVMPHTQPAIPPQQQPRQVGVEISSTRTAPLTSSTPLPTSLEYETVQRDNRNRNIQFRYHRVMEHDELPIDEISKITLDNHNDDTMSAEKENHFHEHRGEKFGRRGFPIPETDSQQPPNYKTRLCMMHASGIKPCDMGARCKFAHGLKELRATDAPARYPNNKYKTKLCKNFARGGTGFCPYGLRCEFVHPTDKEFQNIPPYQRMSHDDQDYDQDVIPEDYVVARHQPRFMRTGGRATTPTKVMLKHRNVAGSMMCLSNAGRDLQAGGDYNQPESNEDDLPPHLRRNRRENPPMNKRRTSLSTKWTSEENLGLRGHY

[22] = biological target: T4, Aryl hydrocarbon receptor (Homo sapiens, UniProt P35869); assay: Luminescence-based cell-based high throughput dose response assay for activators of the Aryl Hydrocarbon Receptor (AHR). [Related pubchem assays: 2796 (Primary screen (AHR activators in singlicate)), 2845 (Confirmation screen (AHR activators in triplicate)), 434939 (Counterscreen (PXR activators in triplicate)), 2804 (Summary (AHR activators))]; assay type: ADME
T4 sequence (P35869 whole entry): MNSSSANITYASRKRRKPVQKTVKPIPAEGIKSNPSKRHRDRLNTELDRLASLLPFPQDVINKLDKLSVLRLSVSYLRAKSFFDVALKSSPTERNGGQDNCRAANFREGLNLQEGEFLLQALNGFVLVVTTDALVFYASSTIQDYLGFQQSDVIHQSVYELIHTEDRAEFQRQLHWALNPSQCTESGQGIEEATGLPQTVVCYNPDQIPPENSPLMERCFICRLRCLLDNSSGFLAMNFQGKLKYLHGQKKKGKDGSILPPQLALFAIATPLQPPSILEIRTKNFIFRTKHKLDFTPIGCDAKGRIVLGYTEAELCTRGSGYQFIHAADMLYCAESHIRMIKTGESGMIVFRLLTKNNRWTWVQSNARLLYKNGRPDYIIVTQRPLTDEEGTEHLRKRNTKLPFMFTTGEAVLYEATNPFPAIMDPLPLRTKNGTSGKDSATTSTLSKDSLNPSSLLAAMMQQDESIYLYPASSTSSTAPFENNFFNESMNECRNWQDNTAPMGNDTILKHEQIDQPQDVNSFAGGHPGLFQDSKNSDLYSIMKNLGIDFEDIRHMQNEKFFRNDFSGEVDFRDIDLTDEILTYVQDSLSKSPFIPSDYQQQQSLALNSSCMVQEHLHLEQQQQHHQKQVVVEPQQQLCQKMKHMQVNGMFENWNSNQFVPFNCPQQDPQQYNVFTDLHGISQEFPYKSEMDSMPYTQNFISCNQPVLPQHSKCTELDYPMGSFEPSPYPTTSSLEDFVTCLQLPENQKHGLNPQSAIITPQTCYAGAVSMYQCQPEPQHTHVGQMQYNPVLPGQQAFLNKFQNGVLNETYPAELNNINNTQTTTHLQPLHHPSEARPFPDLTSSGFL

[23] = biological target: Luciferin 4-monooxygenase (Photinus pyralis, UniProt P08659); assay: Counter Screen for Luciferase-based Assay Positives. [Related pubchem assays: 620, 618, 411 ]
Luciferin 4-monooxygenase, sequence (P08659 whole entry): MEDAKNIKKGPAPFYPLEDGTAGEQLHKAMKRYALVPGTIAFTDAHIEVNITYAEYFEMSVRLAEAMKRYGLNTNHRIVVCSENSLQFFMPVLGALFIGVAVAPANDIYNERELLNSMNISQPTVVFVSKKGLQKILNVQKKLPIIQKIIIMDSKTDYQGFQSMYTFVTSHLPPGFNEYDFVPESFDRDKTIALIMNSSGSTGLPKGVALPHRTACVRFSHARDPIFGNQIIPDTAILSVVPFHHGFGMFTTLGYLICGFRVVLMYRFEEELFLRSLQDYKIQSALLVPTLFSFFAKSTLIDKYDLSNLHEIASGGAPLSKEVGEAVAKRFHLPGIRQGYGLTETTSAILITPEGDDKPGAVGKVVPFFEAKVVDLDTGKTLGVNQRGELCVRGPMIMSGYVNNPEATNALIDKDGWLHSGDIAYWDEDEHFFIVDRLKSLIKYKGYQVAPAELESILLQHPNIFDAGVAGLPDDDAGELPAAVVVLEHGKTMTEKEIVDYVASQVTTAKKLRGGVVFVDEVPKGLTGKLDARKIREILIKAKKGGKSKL

HT-1080 = assay: cytotoxicity in HT1080 fibrosarcoma cells, cell-based, fluorescence readout (AID 620); assay type: functional; details: Homo sapiens
HEK293 = assay: inhibitors of LMP1-driven NF-kB reporter, dose response, cell-based, HEK293, luciferase, cherry-pick (AID 588343); assay type: functional; details: Homo sapiens

Induced myeloid leukemia cell differentiation protein Mcl-1, sequence (Q07820 whole entry): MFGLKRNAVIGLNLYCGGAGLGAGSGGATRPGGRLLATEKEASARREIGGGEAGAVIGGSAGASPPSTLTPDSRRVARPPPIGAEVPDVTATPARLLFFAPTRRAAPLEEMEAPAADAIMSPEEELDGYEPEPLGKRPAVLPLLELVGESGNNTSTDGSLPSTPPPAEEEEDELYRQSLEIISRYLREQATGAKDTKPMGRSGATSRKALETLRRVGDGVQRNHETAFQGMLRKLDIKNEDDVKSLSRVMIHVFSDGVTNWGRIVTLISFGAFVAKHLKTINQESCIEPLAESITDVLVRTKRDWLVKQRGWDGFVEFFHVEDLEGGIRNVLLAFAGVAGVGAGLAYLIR

With `CC(OC(=O)c1cccc(N2C(=O)c3ccccc3C2=O)c1)C(=O)Nc1ccc(N(C)C)cc1` (configuration not stated) the IC50 [1] was 6.19 µM (not active).
For `CC(=O)O[C@@H]1/C=C/[C@](C)(O)C[C@@H](C)C/C=C/[C@H]2[C@@H]3O[C@]3(C)[C@@H](C)[C@H]3[C@H](Cc4ccccc4)NC(=O)[C@@]312` [EPOXYCYTOCHALASIN H], the EC50 [2] was < 0.1 µM (active), the EC50 [3] was 0.431 µM (active) and the EC50 (cells) was 0.608 µM (active). For the same compound, the EC50 [4] was < 0.1 µM (active), the EC50 [5] was < 0.1 µM (active) and the EC50 [6] was 0.403 µM (active).
In the case of `C[n+]1ccccc1/C=C/c1ccc(F)c(F)c1`, the IC50 [7] is reported as 97.9 µM (active) and the IC50 [8] is reported as 4.32 µM (active).
For `Cc1cc(C(F)(F)F)nc(S(C)(=O)=O)n1`, the IC50 [9] was > 100 µM (not active), the IC50 (Bcl-2-related protein A1 [10]) was > 100 µM (not active) and the IC50 (Bcl-2-related protein A1 [11]) was > 100 µM (not active).
In the case of `Cc1cccc(Nc2nc(N)c(C#N)c(CC#N)c2C#N)c1`, the IC50 [12] is reported as 29.6 µM (not active) and the IC50 (Insulin-degrading enzyme) is reported as > 56 µM (not active).
With `Cc1nc2ccccc2n1-c1nc(-c2ccco2)cc(C(F)(F)F)n1` the EC50 [2] was > 120 µM (not active), the EC50 (BJ [13]) was 1.28 µM (active) and the EC50 [4] was 9.22 µM (active). The EC50 [5] was 5.41 µM (active), the EC50 (BJ [14]) was 23.3 µM (inconclusive) and the EC50 [15] was 2.79 µM (active). For the same compound, the EC50 [16] was 3.09 µM (active), the EC50 (BJ [17]) was 2.38 µM (inconclusive) and the EC50 [18] was 2.85 µM (active). The AC50 [19] was 0.82 µM (active) and the AC50 (INS1) was 1.44 µM (active).
With `NS(=O)(=O)c1ccc(-c2ccc(/C=C3\SC(=O)NC3=O)o2)cc1` the EC50 [20] was > 300 µM (not active), the EC50 [21] was 33.4 µM (active) and the EC50 [22] was 0.237 µM (active).
For `CCO/C(O)=C1\C(C)=NC2=C(C(=O)CC(C)(C)C2)C1c1ccc2c(c1)CCCN2C` (configuration not stated), the IC50 [1] was 1.65 µM (not active).
With `C/C(=N/NC(=O)c1cc(C2CC2)[nH]n1)c1cccs1` the EC50 [23] was > 100 µM (not active), the EC50 (HT-1080) was > 50 µM (not active) and the AC50 (HEK293) was 1.63 µM (active).
